Reference: the supplement of paper PMC11208160

Assay: recombinant UMI read abundance after kanamycin selection (control-corrected) (log10(CPM+1)); higher = more efficient recombination; extreme values may be limits of the assay; sequences stand for … in AGTGCAGAGAAAATCGGCCAGTTTTCTCTGCCTGCAGTCCGCATGCCGTGGGACCCCTTGGGTTCTAACCTGTTGCCTAGATTTATGCAGCGGACTGCCTTTCTCCCAAAGTGATAAACCGG…AGGTTGGTTTCACT; site = the 11-nt donor
How it was run: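 Two replicates each of selected and unselected plating were used in this pooled Escherichia coli screen of donor and donor-binding-loop pairs for the IS621 bridge recombinase. Selection was with IPTG (0.07 mM) and kanamycin. Counts of recombinant UMIs, amplified across the donor–target junction, were converted to CPM, averaged, scaled by control-derived factors and reported as log10(CPM+1).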
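Also: IS621 bridge recombinase in Escherichia coli cells against a fixed T5 target plasmid.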

Sequence	recombinant UMI read abundance (log10)
AGGAATACATGGACCGGTTTTCCCGGTAATCCGTATTTGCA (site AGGAACACTTG)	1.48
AGGAATACATGGACCGGTTTTCCCGGTAATCCGTATTTGCA (site AGGAAGACTTG)	0.151
AGGAATACATGGACCGGTTTTCCCGGTAATCCGTATTTGCA (site AGGAATACTTG)	2.11
AGGAATACATGGACCGGTTTTCCCGGTAATCCGTATTTGGA (site AGGAAGACTTG)	0.341
AGGAATACATGGACCGGTTTTCCCGGTAATCCGTATTTGGA (site AGGAATACTTC)	1.69
AGGAATACATGGACCGGTTTTCCCGGTAATCCGTATTTGGG (site AGGAATACTCC)	0.394
AGGACAACATGGACCGGTTTTCCCGGTAATCCGTATTTGAC (site AGGACAACTGT)	2.26
AGGACAACATGGACCGGTTTTCCCGGTAATCCGTATTTGAC (site AGGACCACTGT)	0
AGGACAACATGGACCGGTTTTCCCGGTAATCCGTATTTGAC (site AGGACGACTGT)	0
AGGACAACATGGACCGGTTTTCCCGGTAATCCGTATTTGAC (site AGGACTACTGT)	0
AGGACGACATGGACCGGTTTTCCCGGTAATCCGTATTTGAC (site AGGACAACTGT)	2.09
AGGACGACATGGACCGGTTTTCCCGGTAATCCGTATTTGAC (site AGGACCACTGT)	0.378
AGGACGACATGGACCGGTTTTCCCGGTAATCCGTATTTGAC (site AGGACGACTGT)	3.14
AGGACGACATGGACCGGTTTTCCCGGTAATCCGTATTTGAC (site AGGACTACTGT)	0
AGGACGACATGGACCGGTTTTCCCGGTAATCCGTATTTGCT (site AGGAAGACTTG)	0
AGGACGACATGGACCGGTTTTCCCGGTAATCCGTATTTGCT (site AGGACGACTAG)	2.52
AGGACTACATGGACCGGTTTTCCCGGTAATCCGTATTTGAA (site AGGACTACTAT)	1.41
AGGACTACATGGACCGGTTTTCCCGGTAATCCGTATTTGAA (site AGGACTACTCT)	0.127
AGGACTACATGGACCGGTTTTCCCGGTAATCCGTATTTGAA (site AGGACTACTGT)	0.477
AGGACTACATGGACCGGTTTTCCCGGTAATCCGTATTTGAA (site AGGACTACTTT)	1.13
AGGACTACATGGACCGGTTTTCCCGGTAATCCGTATTTGCC (site AGGACTACTGA)	0
AGGACTACATGGACCGGTTTTCCCGGTAATCCGTATTTGCC (site AGGACTACTGC)	0
AGGACTACATGGACCGGTTTTCCCGGTAATCCGTATTTGCC (site AGGACTACTGG)	2.23
AGGACTACATGGACCGGTTTTCCCGGTAATCCGTATTTGCC (site AGGACTACTGT)	0
AGGACTGCATGGACCGGTTTTCCCGGTAATCCGTATTTGAG (site AGGACTGCTCT)	1.79

Sequence	recombinant UMI read abundance (log10)
AGGAGGACATGGACCGGTTTTCCCGGTAATCCGTATTTGCA (site AGGAAGACTTG)	2.35
AGGAGGACATGGACCGGTTTTCCCGGTAATCCGTATTTGCA (site AGGACGACTTG)	0.4
AGGAGGACATGGACCGGTTTTCCCGGTAATCCGTATTTGCA (site AGGAGGACTTG)	2.56
AGGAGGACATGGACCGGTTTTCCCGGTAATCCGTATTTGCA (site AGGATGACTTG)	0
AGGAGTACATGGACCGGTTTTCCCGGTAATCCGTATTTGAC (site AGGAATACTGT)	1.29
AGGAGTACATGGACCGGTTTTCCCGGTAATCCGTATTTGAC (site AGGACTACTGT)	0.225
AGGAGTACATGGACCGGTTTTCCCGGTAATCCGTATTTGAC (site AGGAGTACTGT)	2.08
AGGAGTACATGGACCGGTTTTCCCGGTAATCCGTATTTGAC (site AGGATTACTGT)	0.00638
AGGAGTACATGGACCGGTTTTCCCGGTAATCCGTATTTGTC (site AGGAGTACTGA)	2.17
AGGAGTCCATGGACCGGTTTTCCCGGTAATCCGTATTTGAA (site AGGAGTCCTTT)	1.07
AGGATAACATGGACCGGTTTTCCCGGTAATCCGTATTTGGC (site AGGATAACTGC)	2.73
AGGATGACATGGACCGGTTTTCCCGGTAATCCGTATTTGTA (site AGGAAGACTTG)	0
AGGATGACATGGACCGGTTTTCCCGGTAATCCGTATTTGTA (site AGGATGACTTA)	2.6
AGGATGGCATGGACCGGTTTTCCCGGTAATCCGTATTTGGT (site AGGATGGCTAC)	1.79
AGGATTCCATGGACCGGTTTTCCCGGTAATCCGTATTTGTT (site AGGATTCCTAA)	0.226
AGGATTCCATGGACCGGTTTTCCCGGTAATCCGTATTTGTT (site CGGAATCCTAA)	0.0087
AGGCAACCATGGACCGGTTTTCCCGGTAATCCGTATTTGGG (site AGGCAACCTCC)	0.112
AGGCCGACATGGACCGGTTTTCCCGGTAATCCGTATTTGCA (site AGGAAGACTTG)	0
AGGCCGACATGGACCGGTTTTCCCGGTAATCCGTATTTGCA (site AGGCCGACTTG)	1.81
AGGCCTGCATGGACCGGTTTTCCCGGTAATCCGTATTTGAA (site AGGCCTGCTTT)	0.996
AGGCTTCCATGGACCGGTTTTCCCGGTAATCCGTATTTGCG (site AGGCTTCCTCG)	0.745
AGGGAGACATGGACCGGTTTTCCCGGTAATCCGTATTTGCA (site AGGAAGACTTG)	0.796
AGGGAGACATGGACCGGTTTTCCCGGTAATCCGTATTTGCA (site AGGCAGACTTG)	0.473
AGGGAGACATGGACCGGTTTTCCCGGTAATCCGTATTTGCA (site AGGGAGACTTG)	2.5
AGGGAGACATGGACCGGTTTTCCCGGTAATCCGTATTTGCA (site AGGTAGACTTG)	0.162

Sequence	recombinant UMI read abundance (log10)
AGGGATCCATGGACCGGTTTTCCCGGTAATCCGTATTTGTT (site AGGGATCCTAA)	0.662
AGGGATCCATGGACCGGTTTTCCCGGTAATCCGTATTTGTT (site CGGAATCCTAA)	0
AGGGCTACATGGACCGGTTTTCCCGGTAATCCGTATTTGCG (site AGGGCTACTCG)	1.42
AGGGTGACATGGACCGGTTTTCCCGGTAATCCGTATTTGCA (site AGGAAGACTTG)	0.666
AGGGTGACATGGACCGGTTTTCCCGGTAATCCGTATTTGCA (site AGGGTGACTTG)	2.63
AGGTACCCATGGACCGGTTTTCCCGGTAATCCGTATTTGTG (site AGGTACCCTCA)	0.0796
AGGTACCCATGGACCGGTTTTCCCGGTAATCCGTATTTGTG (site AGGTCCCCTCA)	0.0158
AGGTACCCATGGACCGGTTTTCCCGGTAATCCGTATTTGTG (site AGGTGCCCTCA)	0.0127
AGGTACCCATGGACCGGTTTTCCCGGTAATCCGTATTTGTG (site AGGTTCCCTCA)	0.0248
AGGTACGCATGGACCGGTTTTCCCGGTAATCCGTATTTGAG (site AGGTACGCTCT)	1.72
AGGTAGACATGGACCGGTTTTCCCGGTAATCCGTATTTGCA (site AGGAAGACTTG)	1.23
AGGTAGACATGGACCGGTTTTCCCGGTAATCCGTATTTGCA (site AGGCAGACTTG)	2.47
AGGTAGACATGGACCGGTTTTCCCGGTAATCCGTATTTGCA (site AGGGAGACTTG)	0.688
AGGTAGACATGGACCGGTTTTCCCGGTAATCCGTATTTGCA (site AGGTAGACTTG)	2.88
AGGTAGCCATGGACCGGTTTTCCCGGTAATCCGTATTTGCA (site AGGAAGACTTG)	0
AGGTAGCCATGGACCGGTTTTCCCGGTAATCCGTATTTGCA (site AGGTAGCCTTG)	0
AGGTAGCCATGGACCGGTTTTCCCGGTAATCCGTATTTGTA (site AGGTAGCCTTA)	0.215
AGGTAGGCATGGACCGGTTTTCCCGGTAATCCGTATTTGGC (site AAGTAGGCTGC)	0.588
AGGTAGGCATGGACCGGTTTTCCCGGTAATCCGTATTTGGC (site ACGTAGGCTGC)	1.87
AGGTAGGCATGGACCGGTTTTCCCGGTAATCCGTATTTGGC (site AGGTAGGCTGC)	2.65
AGGTAGGCATGGACCGGTTTTCCCGGTAATCCGTATTTGGC (site ATGTAGGCTGC)	0.775
AGGTGCGCATGGACCGGTTTTCCCGGTAATCCGTATTTGTA (site AGGTGCGCTTA)	1.81
AGGTGGACATGGACCGGTTTTCCCGGTAATCCGTATTTGCA (site AGGAAGACTTG)	1.46
AGGTGGACATGGACCGGTTTTCCCGGTAATCCGTATTTGCA (site AGGTGGACTTG)	2.73
AGGTGGACATGGACCGGTTTTCCCGGTAATCCGTATTTGTA (site AGGTGGACTTA)	2.2
